# Source: ChEMBL document CHEMBL5370537, “Aporphines: A privileged scaffold in CNS drug discovery” (Eur J Med Chem, 2023)
# How the values were obtained:
# [1] = molecular target: T1, 5-hydroxytryptamine receptor 2C (Homo sapiens, UniProt P28335); assay: Agonist activity at 5-HT2C (unknown origin); format: functional
# T1 sequence (P28335 whole entry): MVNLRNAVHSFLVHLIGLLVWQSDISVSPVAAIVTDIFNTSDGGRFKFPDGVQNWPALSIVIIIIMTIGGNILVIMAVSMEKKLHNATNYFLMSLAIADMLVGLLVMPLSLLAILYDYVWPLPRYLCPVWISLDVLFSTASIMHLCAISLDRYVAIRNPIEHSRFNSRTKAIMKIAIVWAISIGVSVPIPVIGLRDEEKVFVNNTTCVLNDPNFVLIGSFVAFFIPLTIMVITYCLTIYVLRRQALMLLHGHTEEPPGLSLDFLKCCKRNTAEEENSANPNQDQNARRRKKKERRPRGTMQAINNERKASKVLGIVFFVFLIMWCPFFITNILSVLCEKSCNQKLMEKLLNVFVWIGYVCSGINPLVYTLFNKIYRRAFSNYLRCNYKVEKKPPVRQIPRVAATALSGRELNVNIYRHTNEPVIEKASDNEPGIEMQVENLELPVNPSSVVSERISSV
# [2] = molecular target: T2, 5-hydroxytryptamine receptor 2C (Homo sapiens) (UniProt P28335); assay: Agonist activity at 5-HT2C (unknown origin) relative to control; format: functional; settings: filed as agonist
# T2 sequence (whole entry): T1 sequence (P28335 whole entry)
# BV-2 = assay: Inhibition of NO production in LPS-induced mouse BV-2 cells incubated for 24 hrs by Griess reagent based microplate reader analysis; format: functional, cell-based; settings: BV-2, 24 h
# [3] = molecular target: T1, 5-hydroxytryptamine receptor 2C; assay: Agonist activity at recombinant human 5-HT2C stably expressed in human T-REx-293 cells measured after 60 mins by FLIPR assay; format: functional, cell-based
# [4] = molecular target: T2, 5-hydroxytryptamine receptor 2C (Homo sapiens); assay: Agonist activity at recombinant human 5-HT2C stably expressed in human T-REx-293 cells measured after 60 mins by FLIPR assay relative to control; format: functional, cell-based; settings: filed as agonist
# D(2) dopamine receptor [5] = molecular target: T3, D(2) dopamine receptor (Homo sapiens, UniProt P14416); assay: Antagonist activity at D2R (unknown origin); format: functional
# Cholinesterase = Cholinesterase (Equus caballus, UniProt P81908); assay: Inhibition of equine serum BuChE using BTCI as substrate pre-incubated for 10 mins followed by substrate addition measured after 5 mins by microplate reader analysis
# Acetylcholinesterase = Acetylcholinesterase (Electrophorus electricus, UniProt O42275); assay: Inhibition of Electrophorus electricus AChE using ATCI as substrate pre-incubated for 10 mins followed by substrate addition measured after 5 mins by microplate reader analysis
# [6] = molecular target: 5-hydroxytryptamine receptor 7 (Rattus norvegicus, UniProt P32305); assay: Displacement of [3H]5-HT from rat 5-HT7 assessed as inhibition constant
# [7] = molecular target: T4, 5-hydroxytryptamine receptor 2B (Homo sapiens, UniProt P41595); assay: Agonist activity at 5-HT2B (unknown origin) relative to control; format: functional; settings: filed as agonist
# [8] = molecular target: T5, 5-hydroxytryptamine receptor 2A (Homo sapiens, UniProt P28223); assay: Agonist activity at 5-HT2A (unknown origin); format: functional
# [9] = Selectivity index, ratio of EC50 for agonist activity at 5-HT2C (unknown origin) to EC50 for agonist activity at 5-HT2A (unknown origin)
# [10] = Selectivity index, ratio of EC50 for agonist activity at 5-HT2C (unknown origin) to EC50 for agonist activity at 5-HT2B (unknown origin)
# [11] = molecular target: T4, 5-hydroxytryptamine receptor 2B; assay: Agonist activity at 5-HT2B (unknown origin); format: functional
# [12] = molecular target: T5, 5-hydroxytryptamine receptor 2A; assay: Agonist activity at 5-HT2A (unknown origin) relative to control; format: functional; settings: filed as agonist
# [13] = molecular target: T1, 5-hydroxytryptamine receptor 2C; assay: Antagonist activity at 5-HT2C (unknown origin); format: functional
# [14] = molecular target: 5-hydroxytryptamine receptor 7 (Homo sapiens, UniProt P34969); assay: Inverse agonist activity at 5-HT7 (unknown origin); format: functional
# [15] = molecular target: T5, 5-hydroxytryptamine receptor 2A; assay: Inverse agonist activity at 5-HT2A (unknown origin); format: functional
# D(2) dopamine receptor [16] = molecular target: T3, D(2) dopamine receptor; assay: Partial agonist activity at D2R (unknown origin) expressed in HEK293 cells relative to control; format: functional, cell-based; settings: filed as partial agonist
# [17] = molecular target: Acetylcholinesterase (Electrophorus electricus) (UniProt O42275); assay: Potency index, ratio of (R)-Roemerine IC50 to test compound IC50 for inhibition of Electrophorus electricus AChE using ATCI as substrate pre-incubated for 10 mins followed by substrate addition measured after 5 mins by microplate reader analysis; settings: time 15.0 min
# [18] = molecular target: Acetylcholinesterase (Electrophorus electricus) (UniProt O42275); assay: Potency index, ratio of (S)-Dicentrine IC50 to test compound IC50 for inhibition of Electrophorus electricus AChE using ATCI as substrate pre-incubated for 10 mins followed by substrate addition measured after 5 mins by microplate reader analysis; settings: time 15.0 min
# [19] = molecular target: Acetylcholinesterase (Electrophorus electricus) (UniProt O42275); assay: Potency index, ratio of (R)-Stephanine IC50 to test compound IC50 for inhibition of Electrophorus electricus AChE using ATCI as substrate pre-incubated for 10 mins followed by substrate addition measured after 5 mins by microplate reader analysis; settings: time 15.0 min
# D(1A) dopamine receptor = D(1A) dopamine receptor (Homo sapiens, UniProt P21728); assay: Antagonist activity at D1R (unknown origin) transfected in HEK293 cells by FLIPR assay
# [20] = molecular target: T1, 5-hydroxytryptamine receptor 2C; assay: Partial agonist activity at human 5-HT2C stably transfected in HEK293T cells measured after 18 to 24 hrs by FLIPR assay; format: functional, cell-based
# Chain of Acetylcholinesterase (O42275 whole entry): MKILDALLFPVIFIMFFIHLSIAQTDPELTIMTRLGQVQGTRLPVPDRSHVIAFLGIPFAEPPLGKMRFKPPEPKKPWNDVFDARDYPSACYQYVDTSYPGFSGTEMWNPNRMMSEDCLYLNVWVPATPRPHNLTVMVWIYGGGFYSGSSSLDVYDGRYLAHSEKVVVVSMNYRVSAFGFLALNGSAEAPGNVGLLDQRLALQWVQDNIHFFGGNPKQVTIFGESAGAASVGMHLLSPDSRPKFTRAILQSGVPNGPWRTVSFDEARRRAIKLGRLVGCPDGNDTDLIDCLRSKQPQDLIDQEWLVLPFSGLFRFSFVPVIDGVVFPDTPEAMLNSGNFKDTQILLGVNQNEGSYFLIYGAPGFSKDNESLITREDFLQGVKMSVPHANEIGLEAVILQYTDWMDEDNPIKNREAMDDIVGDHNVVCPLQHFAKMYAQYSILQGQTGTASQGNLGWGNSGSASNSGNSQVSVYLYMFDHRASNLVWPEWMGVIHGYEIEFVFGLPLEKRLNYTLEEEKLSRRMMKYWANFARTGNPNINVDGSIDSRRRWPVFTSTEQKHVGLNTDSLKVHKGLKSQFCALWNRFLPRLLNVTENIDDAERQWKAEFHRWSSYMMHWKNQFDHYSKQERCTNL
# Chain of Cholinesterase (P81908 whole entry): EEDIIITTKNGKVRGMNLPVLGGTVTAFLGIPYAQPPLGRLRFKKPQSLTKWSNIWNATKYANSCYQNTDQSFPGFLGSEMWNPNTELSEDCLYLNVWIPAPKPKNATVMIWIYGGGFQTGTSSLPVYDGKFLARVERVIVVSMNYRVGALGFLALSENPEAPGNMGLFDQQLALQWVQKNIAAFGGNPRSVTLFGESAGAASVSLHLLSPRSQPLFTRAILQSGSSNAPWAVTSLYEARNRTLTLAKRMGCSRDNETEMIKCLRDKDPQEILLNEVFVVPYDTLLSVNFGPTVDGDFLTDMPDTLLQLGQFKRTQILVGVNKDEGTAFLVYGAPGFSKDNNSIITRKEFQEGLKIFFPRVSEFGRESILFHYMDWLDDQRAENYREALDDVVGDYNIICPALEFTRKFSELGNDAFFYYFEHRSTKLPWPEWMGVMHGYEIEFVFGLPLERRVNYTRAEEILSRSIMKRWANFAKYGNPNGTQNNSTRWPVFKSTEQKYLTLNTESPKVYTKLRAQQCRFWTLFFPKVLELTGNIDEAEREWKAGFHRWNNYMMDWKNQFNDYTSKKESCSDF
# Chain of Acetylcholinesterase (Electrophorus electricus) (O42275 24-633 limits assumed): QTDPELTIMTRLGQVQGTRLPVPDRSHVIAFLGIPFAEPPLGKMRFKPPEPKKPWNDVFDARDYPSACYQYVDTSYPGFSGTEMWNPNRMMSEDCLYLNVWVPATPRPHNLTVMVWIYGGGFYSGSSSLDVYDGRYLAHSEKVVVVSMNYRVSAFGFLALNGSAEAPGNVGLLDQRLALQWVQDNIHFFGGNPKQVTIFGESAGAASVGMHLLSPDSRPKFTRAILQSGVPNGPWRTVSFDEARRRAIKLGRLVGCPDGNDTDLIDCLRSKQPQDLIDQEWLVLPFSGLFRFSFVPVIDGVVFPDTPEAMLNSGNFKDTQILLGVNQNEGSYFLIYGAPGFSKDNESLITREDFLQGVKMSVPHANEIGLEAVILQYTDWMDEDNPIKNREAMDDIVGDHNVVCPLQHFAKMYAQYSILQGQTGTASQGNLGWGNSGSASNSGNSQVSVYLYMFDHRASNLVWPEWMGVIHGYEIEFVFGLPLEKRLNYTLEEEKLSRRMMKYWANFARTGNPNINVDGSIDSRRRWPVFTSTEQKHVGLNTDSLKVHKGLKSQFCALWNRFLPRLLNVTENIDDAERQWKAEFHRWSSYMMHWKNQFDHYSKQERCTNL
# T5 sequence (P28223 whole entry): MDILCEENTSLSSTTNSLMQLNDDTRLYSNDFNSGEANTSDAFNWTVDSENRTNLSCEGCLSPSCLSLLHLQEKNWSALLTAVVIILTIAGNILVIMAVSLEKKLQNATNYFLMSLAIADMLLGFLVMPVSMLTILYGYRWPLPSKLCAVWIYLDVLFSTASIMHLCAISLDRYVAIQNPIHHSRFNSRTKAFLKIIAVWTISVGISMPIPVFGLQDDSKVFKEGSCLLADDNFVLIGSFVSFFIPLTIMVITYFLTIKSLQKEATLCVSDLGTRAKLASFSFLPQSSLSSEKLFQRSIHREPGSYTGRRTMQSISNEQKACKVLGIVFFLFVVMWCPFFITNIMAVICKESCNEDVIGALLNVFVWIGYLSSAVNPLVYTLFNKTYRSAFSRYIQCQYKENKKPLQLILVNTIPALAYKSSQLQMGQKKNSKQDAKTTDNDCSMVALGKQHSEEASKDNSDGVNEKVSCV
# T4 sequence (P41595 whole entry): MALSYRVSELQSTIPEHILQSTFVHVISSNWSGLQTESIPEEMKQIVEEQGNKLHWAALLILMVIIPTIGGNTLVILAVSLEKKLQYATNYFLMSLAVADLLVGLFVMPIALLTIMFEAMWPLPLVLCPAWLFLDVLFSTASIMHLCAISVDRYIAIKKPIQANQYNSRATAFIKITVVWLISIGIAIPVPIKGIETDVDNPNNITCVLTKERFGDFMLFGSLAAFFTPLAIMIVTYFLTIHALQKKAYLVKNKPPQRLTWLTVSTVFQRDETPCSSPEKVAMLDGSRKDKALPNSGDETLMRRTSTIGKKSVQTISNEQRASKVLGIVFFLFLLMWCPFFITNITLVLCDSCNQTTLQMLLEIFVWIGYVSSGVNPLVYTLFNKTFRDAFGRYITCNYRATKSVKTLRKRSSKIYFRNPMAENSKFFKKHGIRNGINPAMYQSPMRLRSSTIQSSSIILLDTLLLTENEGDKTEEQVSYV
# T3 sequence (P14416 whole entry): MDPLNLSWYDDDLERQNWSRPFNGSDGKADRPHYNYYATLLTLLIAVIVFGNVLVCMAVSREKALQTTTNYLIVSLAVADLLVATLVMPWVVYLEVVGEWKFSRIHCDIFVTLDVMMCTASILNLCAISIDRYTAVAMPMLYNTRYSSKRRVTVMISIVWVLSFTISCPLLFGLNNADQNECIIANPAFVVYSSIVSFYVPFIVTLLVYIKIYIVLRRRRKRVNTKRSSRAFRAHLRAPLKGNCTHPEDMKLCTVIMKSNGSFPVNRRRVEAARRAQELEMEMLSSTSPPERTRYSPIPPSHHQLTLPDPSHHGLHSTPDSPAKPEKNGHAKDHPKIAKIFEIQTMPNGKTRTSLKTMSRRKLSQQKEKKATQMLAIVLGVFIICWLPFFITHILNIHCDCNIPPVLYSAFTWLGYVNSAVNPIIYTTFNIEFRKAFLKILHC
# Chain of 5-hydroxytryptamine receptor 7 (Rattus norvegicus, UniProt P32305) (P32305 whole entry): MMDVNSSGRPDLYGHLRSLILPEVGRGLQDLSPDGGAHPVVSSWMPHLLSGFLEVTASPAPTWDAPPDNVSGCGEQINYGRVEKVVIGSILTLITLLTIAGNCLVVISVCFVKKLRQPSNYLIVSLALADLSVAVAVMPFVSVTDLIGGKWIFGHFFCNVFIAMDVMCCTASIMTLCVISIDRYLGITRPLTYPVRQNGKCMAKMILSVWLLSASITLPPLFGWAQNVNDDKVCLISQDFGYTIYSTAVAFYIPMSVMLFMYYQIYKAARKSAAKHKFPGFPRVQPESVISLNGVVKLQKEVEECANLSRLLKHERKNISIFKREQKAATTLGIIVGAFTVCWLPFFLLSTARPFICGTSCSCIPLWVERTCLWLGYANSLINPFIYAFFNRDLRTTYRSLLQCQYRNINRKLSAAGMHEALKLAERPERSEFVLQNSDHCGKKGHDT
# Chain of 5-hydroxytryptamine receptor 7 (Homo sapiens, UniProt P34969) (P34969 whole entry): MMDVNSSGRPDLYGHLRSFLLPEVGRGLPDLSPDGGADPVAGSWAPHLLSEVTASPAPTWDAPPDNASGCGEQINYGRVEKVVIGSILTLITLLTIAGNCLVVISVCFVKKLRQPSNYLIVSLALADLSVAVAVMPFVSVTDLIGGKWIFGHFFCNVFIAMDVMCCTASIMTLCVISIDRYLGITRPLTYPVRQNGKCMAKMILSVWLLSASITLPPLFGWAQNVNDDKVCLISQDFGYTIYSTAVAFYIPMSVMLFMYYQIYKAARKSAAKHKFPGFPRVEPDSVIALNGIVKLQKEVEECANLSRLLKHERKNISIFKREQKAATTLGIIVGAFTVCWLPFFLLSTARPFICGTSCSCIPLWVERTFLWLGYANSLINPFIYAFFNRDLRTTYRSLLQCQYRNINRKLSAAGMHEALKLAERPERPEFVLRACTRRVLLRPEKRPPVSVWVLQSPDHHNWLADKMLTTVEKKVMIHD
# Chain of D(1A) dopamine receptor (P21728 whole entry): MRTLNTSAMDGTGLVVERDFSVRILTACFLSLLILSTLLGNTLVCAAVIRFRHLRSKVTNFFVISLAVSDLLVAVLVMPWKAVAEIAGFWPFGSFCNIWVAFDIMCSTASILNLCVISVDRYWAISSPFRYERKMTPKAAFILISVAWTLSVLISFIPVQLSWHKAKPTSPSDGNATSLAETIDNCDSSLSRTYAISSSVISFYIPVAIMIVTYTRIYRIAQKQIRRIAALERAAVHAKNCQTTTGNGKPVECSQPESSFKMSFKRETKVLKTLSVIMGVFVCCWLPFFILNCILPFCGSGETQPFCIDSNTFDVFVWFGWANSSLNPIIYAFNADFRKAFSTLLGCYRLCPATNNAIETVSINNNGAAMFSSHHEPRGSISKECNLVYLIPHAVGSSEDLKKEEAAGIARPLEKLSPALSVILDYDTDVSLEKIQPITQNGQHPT
compound,measurement,setting,value
Oc1cc2c3c(c1Cl)-c1ccccc1C[C@@H]3NCC2,EC50,[1],7.9 nM
same,Emax,[2],89.8%
COc1cccc2c1cc1c3c(cc4c(c32)OCO4)CCN1C,IC50,BV-2,30200 nM
COc1ccc2c3c1-c1ccccc1CC3NCC2 (configuration not stated),EC50,[3],103 nM
same,Emax,[4],96%
COc1cc2c3c(c1OC)-c1cc(O)ccc1C[C@H]3NCC2,IC50,D(2) dopamine receptor [5],5200 nM
COc1c2c3c(c4c1OCO4)-c1ccccc1C[C@H]3N(C)CC2,IC50,Cholinesterase,104000 nM
same,IC50,Acetylcholinesterase,39800 nM
CN1CCc2ccc3c4c2[C@H]1Cc1cccc(c1-4)C3,Ki,[6],4.3 nM
Oc1cc2c3c(c1Cl)-c1ccccc1CC3NCC2 (configuration not stated),Emax,[7],63.5%
same,EC50,[8],596 nM
same,EC50,[1],23.6 nM
same,Ratio EC50,[9],25
same,Ratio EC50,[10],12
same,EC50,[11],278 nM
same,Emax,[12],44.9%
same,Emax,[2],102%
CN1CCc2cc3c(c4c2c1cc1ccccc14)OCO3 [DEHYDROROEMERINE],IC50,Cholinesterase,3340 nM
same,IC50,BV-2,1300 nM
same,IC50,Acetylcholinesterase,1210 nM
COc1cc2c3c(c1OC)-c1ccccc1CC3N(C)CC2 (stereo not drawn) [(+/-)-NUCIFERINE],IC50,[13],131 nM
same,EC50,[14],150 nM
same,IC50,[15],478 nM
same,Emax,D(2) dopamine receptor [16],67%
COc1c(O)ccc2c1cc1c3c(cc4c(c32)OCO4)CCN1C,IC50,BV-2,39200 nM
COc1cc2cc3c4c(cc5c(c4c2cc1OC)OCO5)CCN3C [DEHYDRODICENTRINE],IC50,Cholinesterase,5570 nM
same,Ratio IC50,[17],4
same,Ratio IC50,[18],4
same,IC50,Acetylcholinesterase,1090 nM
same,Ratio IC50,[19],4
COc1ccc2c(c1)cc1c3c(cc4c(c32)OCO4)CCN1C,IC50,BV-2,31600 nM
COc1ccc2c(c1)C[C@@H]1c3c(cc4c(c3-2)OCO4)CCN1C,IC50,Cholinesterase,16600 nM
same,IC50,Acetylcholinesterase,11900 nM
COc1c(O)cc2c3c1-c1ccccc1C[C@H]3NCC2 [(-)-ASIMILOBINE],IC50,Cholinesterase,10100 nM
same,IC50,D(1A) dopamine receptor,7200 nM
same,IC50,Acetylcholinesterase,141000 nM
same,EC50,[20],653 nM
